What all share (assay type): in vivo
In experiment [1] the test system is Bemisia tabaci (Gennadius) nymphs. Nature of the experiment: Joint toxicity of I-72 + organophosphorus insecticides, cotton leaf-disk spraying, Example 18, Table 18. Particulars: nymphs, cotton leaf-disk spraying, 96 h, A = compound I-72, B = acephate, read-out: LC50. Here is the method: Test target: Bemisia tabaci (Gennadius) nymphs.
(§1) Preparation of the pesticide solution: according to different test requirements, the test samples were accurately weighed respectively with an electronic analytical balance. The technical pesticides were dissolved in acetone, and then diluted with 0.1% Tween 80 water into a series of pesticide solutions with a certain concentration gradient according to the experimental design dosage.
Experimental method: first, cotton leaves with neat and consistent Bemisia tabaci (Gennadius) nymphs were selected and made into leaf disks, with about 20 insects on each leaf disk. Then, they were evenly sprayed with the pesticide solution in the order from low dosage to high dosage according to the experimental design, with 1.5 mL for each leaf and 3 replicates for each treatment. In addition, a blank control was set up.
The treated test materials were placed in an observation room, and the temperature, humidity and illumination of the observation room could be adjusted as needed. The number of dead and live insects was investigated 96 hours later. The corrected mortality rate was calculated using the Abbott's formula, and statistical analysis was performed with the DPS data processing software to obtain the toxicity regression equation, LC50 value and 95% confidence limit of each single test pesticide and each mixture of different ratios. Then, the co-toxicity coefficient of each ratio was calculated using the Sun Y-P method to evaluate the mixing effect (the same as in Example 1).

In another experiment the test system is Pyrrhalta aenescens. The experiment can be described thus: Joint toxicity of I-72 + fenobucarb, insect-dipping, Example 24, Table 24. Particulars: A = compound I-72, B = fenobucarb, insect-dipping, 24 hours, read-out: LC50. On the procedure:
Test target: Pyrrhalta aenescens, a strain reared indoors.
Experimental method: the insect-dipping method was adopted. Pyrrhalta aenescens of the same size were selected, put into an insect-dipping cage, and evenly […] the pesticide solution in the order from low dosage to high dosage according to the experimental design, with dipping for 10 s for each treatment. They were placed in a 9-cm-diameter Petri dish with filter paper. After natural air-drying in the shade, feed was added, with 3 replicates for each treatment. In addition, a blank control was set up.
The treated test materials were placed in an observation room. The total number of test insects and the number of dead insects were investigated 24 hours later. The temperature, humidity and illumination of the observation room could be adjusted as needed. The test conditions, the preparation of the pesticide solution and the evaluation method were the same as those in Example 1.

Experiment [2] has as its system Unaspis yanonensis Kuwana nymphs. Nature of the experiment: whole plant or invertebrate. Particulars: foliar, A = compound I-72, B = spirotetramat, citrus leaf dipping, 120 hours, read-out: LC50. Here is the method:
Test target: Unaspis yanonensis Kuwana nymphs.
as §1
Experimental method: the activity of the mixture against Unaspis yanonensis Kuwana nymphs on citrus was determined by adopting the dipping method. First, the collected citrus leaves with Unaspis yanonensis Kuwana nymphs were treated with the pesticide solution in the order from low dosage to high dosage according to the experimental design. After air-drying, the petioles were kept moist with degreased cotton, and then the leaves were placed in a Petri dish, with 3 replicates for each treatment. In addition, a blank control was set up.
The treated test materials were placed in an observation room, and the temperature, humidity and illumination of the observation room could be adjusted as needed. The number of dead and live insects was investigated 120 hours later.

Experiment [3] deals with adult Bemisia tabaci (Gennadius). Nature of the experiment: whole plant or invertebrate. The following applies: in Phaseolus vulgaris, 72 h. On the procedure:
as §1
In addition, a blank control was set up. The number of dead and live insects was investigated 72 hours later.

The subject of experiment [4] is Sitobion miscanthi (Fabricius). Nature of the experiment: whole plant or invertebrate. Particulars: Sitobion miscanthi, in Triticum aestivum; single pesticide, 10 mg/L; 48 hours; read-out: Measured mortality rate. Here is the method: Test target: Sitobion miscanthi (Fabricius).
as §1
Experimental method: first, wheat seedlings with uniform and consistent Sitobion miscanthi (Fabricius) were selected, with about 30-40 insects on each pot of wheat. Then, they were evenly sprayed with the pesticide solution in the order from low dosage to high dosage according to the experimental design, with 2.5 mL for each pot and 3 replicates for each treatment. In addition, a blank control CK was set up.
The treated test materials were placed in an observation room, and the temperature, humidity and illumination of the observation room could be adjusted as needed. The number of dead and alive insects was investigated 48 hours later, and the corrected mortality rate was calculated using the Abbott's formula.
The synergism of the mixture was evaluated by the Bliss method. According to the concept of independent joint action he proposed, Bliss believes that the theoretical mortality rate P when insecticides are used in combination can be calculated by the following formula: […]
Pm is the measured mortality rate (%) of the target when the first active ingredient is at a concentration of m; and Pn is the measured mortality rate (%) of the target when the second active ingredient is used at a concentration of n.
If the actual mortality rate of the target after the two active ingredients are mixed at a certain concentration is greater than theoretical mortality rate P, it is determined that the two active ingredients have a synergistic effect when used in combination at the set concentration, and otherwise, they have an antagonistic effect.

Experiment [5] concerns 2nd-instar larvae of Plutella xylostella. The experiment can be described thus: Joint toxicity of I-72 + tetraniliprole, Example 58, Table 58. Particulars: Plutella xylostella, foliar; A = compound I-72, B = tetraniliprole; cabbage leaf dipping; 72 hours; read-out: LC50. On the procedure: Test target: 2nd-instar larvae of Plutella xylostella.
as §1
Experimental method: first, cabbage leaves were selected and dipped in the prepared pesticide solution for 10 s in the order from low dosage to high dosage according to the experimental design. After natural air-drying in the shade, they were placed in a 9-cm-diameter Petri dish with filter paper, and uniform and healthy test insects were introduced, with 10 insects for each treatment and 3 replicates for each treatment. In addition, a blank control was set up.
(§2) The treated test materials were placed in an observation room, and the temperature, humidity and illumination of the observation room could be adjusted as needed. The number of dead and live insects was investigated 72 hours later. […] Then, the co-toxicity coefficient of each ratio was calculated using the Sun Y-P method to evaluate the mixing effect (the same as in Example 1).

The test system of experiment [6] is Nilaparvata lugens (Stal) nymphs. Nature of the experiment: Joint toxicity of I-72 + imidacloprid, Example 70, Table 70. Particulars: A = compound I-72, B = imidacloprid, potted-seedling spraying, 72 hours, read-out: LC50. On the procedure: Test target: Nilaparvata lugens (Stal) nymphs, a sensitive strain reared indoors.
as §1
Experimental method: the activity of the mixture against the Nilaparvata lugens (Stal) nymphs was determined by adopting the potted-seedling spraying method. First, rice seedlings were planted in culture pots. Uniform spraying was performed with the pesticide solution in the order from low dosage to high dosage according to the experimental design, with 2 mL for each seedling. Then, Nilaparvata lugens nymphs of uniform size were transferred onto the rice seedlings, with 3 replicates for each treatment. In addition, a blank control was set up.
as §2

The record followed here is US20260198495A1, “BINARY INSECTICIDE COMPOSITION AND USE THEREOF” (SHENYANG SINOCHEM AGROCHEMICALS R & D CO., LTD., priority 2022, published 2026).

Structures are written as SMILES. ≈ marks a conversion by molar mass, not a printed value.

Take `CN(C(=O)c1ccc2c(c1)OC(F)(F)O2)c1cccc(C(=O)Nc2c(Br)cc(C(F)(C(F)(F)F)C(F)(F)F)cc2OC(F)F)c1F` [Compound I-72]: the 50% lethal concentration (LC50) in experiment [1] is 5.05 µg/mL; in the experiment on Pyrrhalta aenescens, 1.33 µg/mL; in experiment [2] it was 75.2 µg/mL (≈ 101 µM); in experiment [3], 2.91 µg/mL (≈ 3.92 µM); in experiment [5] it was 0.0888 µg/mL; in experiment [6], 243 µg/mL. Also, the mortality at 10 µg/mL in experiment [4] worked out at 64.2%.
